According to patent US12569430B2 (priority 2021, dated 2026):
Converted amounts (≈) assume the structure as drawn. Where a name gives a salt, the structure may show the parent alone. Read-outs that look alike come from different tables or passages of the source.

Legend:
[1] = Toxicokinetics after subcutaneous implant; assay type: in vivo, Yucatan minipigs; conditions: single subcutaneous implant, 1 g NTX (Group 2) vs 1 g NTX with 10 mg TCA (Group 3)
[2] = Saturation solubility of naltrexone in different media; assay type: physicochemical; conditions: thermodynamic from solid, read-out: Solubility of API
[3] = cited from earlier work
[4] = In vitro dissolution of pellets, USP dissolution apparatus II (paddle); conditions: for Release Triamcinolone, %: n = 1
Method: The parameters used in the dissolution study are given below.
A USP dissolution apparatus II (paddle) (Agilent Technologies, Inc., Santa Clara, CA) was used for dissolution method parameters selection. For accelerated dissolution method development multiple parameters were evaluated: • 1). temperature of the dissolution media; • 2). initial wetting of the pellet (by adding detergent and organic solvent); • 3). the mixing speed; and • 4). the pH of the dissolution media used.
Water was used as the starting media. A sampling timepoint (at 66 or 90 hours) was used for initial dissolution parameter assessment.
The dissolution tests were performed in “sink” conditions where the amount of solvent was at least 3 times higher than the minimum amount of solvent required for dissolution.
Therefore, for the next step of the dissolution method development, 20% of ethanol was added to the dissolution media with a phosphate buffer.
Samples were taken at 8, 24, 48, 72 and 84 hours.

## O=C1CC[C@@]2(O)[C@H]3Cc4ccc(O)c5c4[C@@]2(CCN3CC2CC2)[C@H]1O5 [naltrexone, (4R,4aS,7aR,12bS)-3-(cyclopropylmethyl)-4a,9-dihydroxy-2,4,5,6,7a,13-hexahydro-1H-4,12-methanobenzofuro[3,2-e]isoquinolin-7-one]
[1]
  Systemic exposure to NTX (Cmax and AUC): did not appear to be impacted
[2]; pH 5, aqueous buffer, Hanks' Balanced Salt solution pH5.0
  solubility: 770 µg/mL
[2]; pH 5, aqueous buffer, PBS pH5.0 (1:5)
  solubility: 5210 µg/mL (≈ 15.3 mM)
[2]; pH 5.5, aqueous buffer, PBS pH5.5 (1:5)
  solubility: 3120 µg/mL (≈ 9.14 mM)
[2]; pH 5.5, aqueous with cosolvent or surfactant or cyclodextrin, 20% EtOH + 80% PBS pH5.5 (1:10)
  solubility: 5730 µg/mL
[2]; pH 6, aqueous buffer, PBS pH6.0 (1:5)
  solubility: 2910 µg/mL (≈ 8.52 mM)
[2]; pH 7.4, aqueous buffer, Hanks' Balanced Salt solution pH7.4
  solubility: 670 µg/mL
[2]; pH 7.4, aqueous buffer, PBS pH7.4
  solubility: 960 µg/mL (≈ 2.81 mM)
[2]; pH 8, aqueous buffer, Hanks' Balanced Salt solution pH8.0
  solubility: 650 µg/mL
[2]; pH 8, aqueous buffer, PBS pH8.0
  solubility: 750 µg/mL (≈ 2.2 mM)

## O=C1CC[C@@]2(O)[C@H]3Cc4ccc(O)c5c4[C@@]2(CCN3CC2CC2)[C@H]1O5 [naltrexone hydrochloride]
[3]
  solubility in EtOH: < 1000 µg/mL

## CC1(C)O[C@@H]2C[C@H]3[C@@H]4CCC5=CC(=O)C=C[C@]5(C)[C@@]4(F)[C@@H](O)C[C@]3(C)[C@]2(C(=O)CO)O1 [triamcinolone acetonide (TCA), triamcinolone acetonide]
[4]; 10 mM Acetate buffer pH 3.8, 50 RPM at 37° C., 8 hrs
  Release of triamcinolone acetonide (TCA) from pellets: 24.63%
[4]; 10 mM Acetate buffer pH 3.8, 50 RPM at 37° C., 24 hrs
  Release of triamcinolone acetonide (TCA) from pellets: 62.64%
[4]; 10 mM Acetate buffer pH 3.8, 50 RPM at 37° C., 48 hrs
  Release of triamcinolone acetonide (TCA) from pellets: 79.58%
[4]; 10 mM Acetate buffer pH 3.8, 50 RPM at 37° C., 72 hrs
  Release of triamcinolone acetonide (TCA) from pellets: 79.36%
[4]; 10 mM Acetate buffer pH 5.0, 50 RPM at 37° C., 8 hrs
  Release of triamcinolone acetonide (TCA) from pellets: 17.27%
[4]; 10 mM Acetate buffer pH 5.0, 50 RPM at 37° C., 24 hrs
  Release of triamcinolone acetonide (TCA) from pellets: 46.65%
[4]; 10 mM Acetate buffer pH 5.0, 50 RPM at 37° C., 48 hrs
  Release of triamcinolone acetonide (TCA) from pellets: 69.50%
[4]; 10 mM Acetate buffer pH 5.0, 50 RPM at 37° C., 72 hrs
  Release of triamcinolone acetonide (TCA) from pellets: 78.13%
[4]; 10 mM Acetate buffer pH 5.8, 50 RPM, 8 hrs
  Release of triamcinolone acetonide (TCA) from pellets: 4.93%
[4]; 10 mM Acetate buffer pH 5.8, 50 RPM, 24 hrs
  Release of triamcinolone acetonide (TCA) from pellets: 15.62%
[4]; 10 mM Acetate buffer pH 5.8, 50 RPM, 48 hrs
  Release of triamcinolone acetonide (TCA) from pellets: 23.89%
[4]; 10 mM Acetate buffer pH 5.8, 50 RPM, 72 hrs
  Release of triamcinolone acetonide (TCA) from pellets: 29.78%
[4]; 10 mM PBS pH 7.4, 50 RPM, 37° C., 66 hrs
  Release Triamcinolone, %: 33.12%
[4]; 10 mM phosphate buffer pH 5.0, 50 RPM at 37° C., 8 hrs
  Release of triamcinolone acetonide (TCA) from pellets: 15.30%
[4]; 10 mM phosphate buffer pH 5.0, 50 RPM at 37° C., 24 hrs
  Release of triamcinolone acetonide (TCA) from pellets: 47.19%
[4]; 10 mM phosphate buffer pH 5.0, 50 RPM at 37° C., 48 hrs
  Release of triamcinolone acetonide (TCA) from pellets: 75.78%
[4]; 10 mM phosphate buffer pH 5.0, 50 RPM at 37° C., 72 hrs
  Release of triamcinolone acetonide (TCA) from pellets: 81.56%
[4]; 10 mM phosphate buffer pH 6.0, 50 RPM at 37° C., 8 hrs
  Release of triamcinolone acetonide (TCA) from pellets: 12.51%
[4]; 10 mM phosphate buffer pH 6.0, 50 RPM at 37° C., 24 hrs
  Release of triamcinolone acetonide (TCA) from pellets: 41.72%
[4]; 10 mM phosphate buffer pH 6.0, 50 RPM at 37° C., 48 hrs
  Release of triamcinolone acetonide (TCA) from pellets: 74.31%
[4]; 10 mM phosphate buffer pH 6.0, 50 RPM at 37° C., 72 hrs
  Release of triamcinolone acetonide (TCA) from pellets: 80.00%
[4]; 10 mM phosphate buffer pH 7.4, 150 RPM at 37° C., 8 hrs
  Release of triamcinolone acetonide (TCA) from pellets: 16.66%
[4]; 10 mM phosphate buffer pH 7.4, 150 RPM at 37° C., 24 hrs
  Release of triamcinolone acetonide (TCA) from pellets: 39.78%
[4]; 10 mM phosphate buffer pH 7.4, 150 RPM at 37° C., 48 hrs
  Release of triamcinolone acetonide (TCA) from pellets: 52.83%
[4]; 10 mM phosphate buffer pH 7.4, 150 RPM at 37° C., 72 hrs
  Release of triamcinolone acetonide (TCA) from pellets: 59.58%
[4]; 10 mM phosphate buffer/20% EtOH pH 6.0, 50/75 RPM at 37° C., 8 hrs
  Release of triamcinolone acetonide (TCA) from pellets: 33.18%
[4]; 10 mM phosphate buffer/20% EtOH pH 6.0, 50/75 RPM at 37° C., 24 hrs
  Release of triamcinolone acetonide (TCA) from pellets: 87.99%
[4]; 10 mM phosphate buffer/20% EtOH pH 6.0, 50/75 RPM at 37° C., 48 hrs
  Release of triamcinolone acetonide (TCA) from pellets: 109.67%
[4]; 10 mM phosphate buffer/20% EtOH pH 6.0, 50/75 RPM at 37° C., 72 hrs
  Release of triamcinolone acetonide (TCA) from pellets: 109.28%
[4]; 10 mM phosphate buffer/20% EtOH pH 6.5, 50/75 RPM at 37° C., 8 hrs
  Release of triamcinolone acetonide (TCA) from pellets: 28.58%
[4]; 10 mM phosphate buffer/20% EtOH pH 6.5, 50/75 RPM at 37° C., 24 hrs
  Release of triamcinolone acetonide (TCA) from pellets: 76.69%
[4]; 10 mM phosphate buffer/20% EtOH pH 6.5, 50/75 RPM at 37° C., 48 hrs
  Release of triamcinolone acetonide (TCA) from pellets: 104.85%
[4]; 10 mM phosphate buffer/20% EtOH pH 6.5, 50/75 RPM at 37° C., 72 hrs
  Release of triamcinolone acetonide (TCA) from pellets: 104.64%
[4]; 10 mM phosphate buffer/20% EtOH pH 7.4, 50/75 RPM at 37° C., 8 hrs
  Release of triamcinolone acetonide (TCA) from pellets: 23.48%
[4]; 10 mM phosphate buffer/20% EtOH pH 7.4, 50/75 RPM at 37° C., 24 hrs
  Release of triamcinolone acetonide (TCA) from pellets: 64.52%
[4]; 10 mM phosphate buffer/20% EtOH pH 7.4, 50/75 RPM at 37° C., 48 hrs
  Release of triamcinolone acetonide (TCA) from pellets: 98.10%
[4]; 10 mM phosphate buffer/20% EtOH pH 7.4, 50/75 RPM at 37° C., 72 hrs
  Release of triamcinolone acetonide (TCA) from pellets: 107.29%
[4]; 20 mM Acetate Buffer pH 3.8, 50 RPM, 37° C., 66 hrs
  Release Triamcinolone, %: 83.52%
[4]; 0.05N HCl, pH 1, 50 RPM, 37° C., 66 hrs
  Release Triamcinolone, %: 85.59%
[4]; 0.1% SLS in Water, 50 RPM, 37° C., 66 hrs
  Release Triamcinolone, %: 39.09%
[4]; 20% EtOH, 80% Water, 50 RPM, 37° C., 90 hrs
  Release Triamcinolone, %: 61.77%
[4]; Water, 50 RPM, 37° C., 90 hrs
  Release Triamcinolone, %: 31.50%
[4]; Water, 60 RPM, 60° C., 66 hrs
  Release Triamcinolone, %: 38.63%
[4]; Water, 150 RPM, 37° C., 66 hrs
  Release Triamcinolone, %: 33.47%
